Common to all, as to assay type: in vivo
The test system of assay [1] is myocardial fibrosis (collagen I, collagen IV). Put plainly: Assessment of myocardial fibrosis in HF-fed mice. Conditions: for collagen deposition / collagen accumulation associated with high fat feeding: HF-fed mice, histology (FIG. 1); for Gene expression Collagen I / Gene expression Collagen IV: HF diet, real time RT-PCR. An excerpt:
Adult (8-week-old) male […] mice (Precinct Animal Centre, Melbourne, Australia) and RAGE knockout (KO) mice^17 ([…] al., J Clin Invest. 113:1641-50, 2004) were housed in a temperature-controlled room on a 12-h light-dark cycle. Mice were placed on either a standard diet (AIN-93G; Specialty feeds, Perth AUS; n=10/group) or a high fat (HF) diet formulated to mimic a “Western fast food diet”, (SF05-031, Specialty Feeds; n=10). Both diets contained the same vitamin and calorie content. […] Animals receiving a HF diet were further randomized to receive alagebrium chloride at a dose of 1 mg/kg/day delivered by oral gavage. All groups were followed for 16 weeks. Previous studies have shown that obesity is associated with an increase in intramyocardial fibrosis. Gene expression of markers of fibrosis, including collagens and fibronectin were assessed by real-time quantitative RT-PCR, as detailed above. Perivascular collagen deposition was assessed by Van Giesen's Stain and interstitial fibrosis was assessed by staining with Picrosirus red staining of organized collagen. […] Paraffin-fixed cardiac sections were also stained for collagen IV by immunohistochemistry, as previously described^12 (Candido et al., Circ Res. 92:785-92, 2003).
A general note: In qPCR the cycle at which signal appears reflects the starting amount.

Assay [2] deals with superoxide production in left ventricular homogenates (gp91^phox, RAC-1, heme oxygenase). The assay can be described thus: Assessment of superoxide production in HF-fed mice. The source says:
Adult (8-week-old) male […] mice (Precinct Animal Centre, Melbourne, Australia) and RAGE knockout (KO) mice^17 ([…] al., J Clin Invest. 113:1641-50, 2004) were housed in a temperature-controlled room on a 12-h light-dark cycle. Mice were placed on either a standard diet (AIN-93G; Specialty feeds, Perth AUS; n=10/group) or a high fat (HF) diet formulated to mimic a “Western fast food diet”, (SF05-031, Specialty Feeds; n=10). Both diets contained the same vitamin and calorie content. […] Animals receiving a HF diet were further randomized to receive alagebrium chloride at a dose of 1 mg/kg/day delivered by oral gavage. All groups were followed for 16 weeks. The production and accumulation of superoxide and other ROS is a key mediator of […] injury and cellular dysfunction associated with high fat feeding^5 (Boudina and Abel, Circulation 115:3213-23, 2007). […] Following incubation for 60 min at 37° C., before the rate of superoxide anion formation was determined by the addition of 3.8 μM lucigenin (bis-N-methylacridinium nitrate). […] The expression of the NADPH subunits, NOX-2 (gp91^phox), p47^phox, NOX-4 and RAC-1 in left ventricular homogenates, along with the expression of heme oxygenase (HO) and glutathione peroxidase (GPX), key defence mechanism against oxidative stress, were further assessed by real-time quantitative RT-PCR, as detailed above.

For assay [3], the system named is AGEs (CML), S100 A8/A9, RAGE, AGE-R1, AGE-R3. The assay can be described thus: Accumulation of RAGE ligands and AGE receptor expression in HF-fed mice. Conditions: for Gene expression RAGE: Wild-type mice, HF diet, real time RT-PCR, control = 1. An excerpt: Adult (8-week-old) male […] mice (Precinct Animal Centre, Melbourne, Australia) and RAGE knockout (KO) mice^17 ([…] al., J Clin Invest. 113:1641-50, 2004) were housed in a temperature-controlled room on a 12-h light-dark cycle. Mice were placed on either a standard diet (AIN-93G; Specialty feeds, Perth AUS; n=10/group) or a high fat (HF) diet formulated to mimic a “Western fast food diet”, (SF05-031, Specialty Feeds; n=10). Both diets contained the same vitamin and calorie content. […] Animals receiving a HF diet were further randomized to receive alagebrium chloride at a dose of 1 mg/kg/day delivered by oral gavage. All groups were followed for 16 weeks. […] Cardiovasc Diabetol. 5:6, 2006) was also assessed by commercial ELISA.

SMILES strings stand for the structures.

Take `Cc1sc[n+](CC(=O)c2ccccc2)c1C.[Cl-]` [alagebrium chloride, 3-(2-phenyl-2-oxoethyl)-4,5-dimethylthiazolium chloride]: the “collagen deposition / collagen accumulation associated with high fat feeding” value is “unaffected” in assay [1] and “reduced” in assay [1] (listed as alegebrium chloride). The “Gene expression Collagen I” value in assay [1] (RAGE KO mice) was found to be 0.8 ± 0.1 AU/18s; in assay [1] (Wild-type mice), 1.6 ± 0.1 AU/18s. Besides, the “Gene expression Collagen IV” value in assay [1] (RAGE KO mice) was 0.9 ± 0.1 AU/18s; in assay [1] (Wild-type mice) it was 1.3 ± 0.1 AU/18s. In assay [2] (RAGE KO mice, HF diet, real time RT-PCR, listed as AL), the “Gene expression relative to 18S (AU/18s)” value is given as 0.1 ± 0.1 AU/18s. The “NADH-dependent (mitochondrial) superoxide production in cardiac homogenates” value in assay [2] (both wild type and RAGE KO mice, HF diet (FIG. 4)) is reported as “significantly reduced”. In assay [3] (HF-fed mice, ELISA (FIG. 3)), the “increase in S100 A8/A9 following HF feeding” value was “attenuated”. Also, the “Gene expression RAGE” value in assay [3] is “prevented”; in assay [3] (listed as AL), 1.0 ± 0.2 AU/18s. For the same molecule, the “AGE accumulation (ELISA for CML-modified protein)” value in assay [3] (both wild type and RAGE KO mice, HF diet (FIG. 3)) is given as “markedly reduced”.

Source of the values: US20090088461A1, “Methods of Treating or Preventing Cardiac Disease Associated With a High Fat Diet” (Synvista Therapeutics, Inc., priority 2007, published 2009).
